Assay results from paper PMC5805629 (Journal of medicinal chemistry, 2018).
Values belong to the compound of their own block, whether it stands above or below them.

What was measured:
[1] = tested on: SW620/Ad300 drug-resistant cell lines; settings: 10 μM in vitro; cited from earlier work
tumor = settings: mice; no apparent side-effects; cited from earlier work
human P-gp [2] = target: T1, human P-gp (Homo sapiens, UniProt P08183); settings: read-out: [125I]-IAAP labeling IC50; inhibition of photolabeling of P-gp; cited from earlier work
[3] = tested on: SW620/Ad300 drug-resistant cell lines; settings: cited from earlier work
human P-gp [4] = target: T1, human P-gp; settings: 20 min, 2.5 µM, pH 6.8
CYP3A4 = CYP3A4 (Homo sapiens, UniProt P08684); experiment: In vitro CYP3A4 enzyme inhibition assay; format: in vitro ADME; settings: 25 μM
MDR reversal = format: cell-based; settings: human
HEK 293-pcDNA 3.1 cells = experiment: MDR reversal; format: cell-based; settings: 72 h, read-out: IC50 ± SD of paclitaxel
[5] = tested on: parental and resistant cell lines; experiment: Preliminary cytotoxicity of reversal compounds treated alone; format: cell-based; settings: 5 μM concentration

T1 sequence (P08183 whole entry): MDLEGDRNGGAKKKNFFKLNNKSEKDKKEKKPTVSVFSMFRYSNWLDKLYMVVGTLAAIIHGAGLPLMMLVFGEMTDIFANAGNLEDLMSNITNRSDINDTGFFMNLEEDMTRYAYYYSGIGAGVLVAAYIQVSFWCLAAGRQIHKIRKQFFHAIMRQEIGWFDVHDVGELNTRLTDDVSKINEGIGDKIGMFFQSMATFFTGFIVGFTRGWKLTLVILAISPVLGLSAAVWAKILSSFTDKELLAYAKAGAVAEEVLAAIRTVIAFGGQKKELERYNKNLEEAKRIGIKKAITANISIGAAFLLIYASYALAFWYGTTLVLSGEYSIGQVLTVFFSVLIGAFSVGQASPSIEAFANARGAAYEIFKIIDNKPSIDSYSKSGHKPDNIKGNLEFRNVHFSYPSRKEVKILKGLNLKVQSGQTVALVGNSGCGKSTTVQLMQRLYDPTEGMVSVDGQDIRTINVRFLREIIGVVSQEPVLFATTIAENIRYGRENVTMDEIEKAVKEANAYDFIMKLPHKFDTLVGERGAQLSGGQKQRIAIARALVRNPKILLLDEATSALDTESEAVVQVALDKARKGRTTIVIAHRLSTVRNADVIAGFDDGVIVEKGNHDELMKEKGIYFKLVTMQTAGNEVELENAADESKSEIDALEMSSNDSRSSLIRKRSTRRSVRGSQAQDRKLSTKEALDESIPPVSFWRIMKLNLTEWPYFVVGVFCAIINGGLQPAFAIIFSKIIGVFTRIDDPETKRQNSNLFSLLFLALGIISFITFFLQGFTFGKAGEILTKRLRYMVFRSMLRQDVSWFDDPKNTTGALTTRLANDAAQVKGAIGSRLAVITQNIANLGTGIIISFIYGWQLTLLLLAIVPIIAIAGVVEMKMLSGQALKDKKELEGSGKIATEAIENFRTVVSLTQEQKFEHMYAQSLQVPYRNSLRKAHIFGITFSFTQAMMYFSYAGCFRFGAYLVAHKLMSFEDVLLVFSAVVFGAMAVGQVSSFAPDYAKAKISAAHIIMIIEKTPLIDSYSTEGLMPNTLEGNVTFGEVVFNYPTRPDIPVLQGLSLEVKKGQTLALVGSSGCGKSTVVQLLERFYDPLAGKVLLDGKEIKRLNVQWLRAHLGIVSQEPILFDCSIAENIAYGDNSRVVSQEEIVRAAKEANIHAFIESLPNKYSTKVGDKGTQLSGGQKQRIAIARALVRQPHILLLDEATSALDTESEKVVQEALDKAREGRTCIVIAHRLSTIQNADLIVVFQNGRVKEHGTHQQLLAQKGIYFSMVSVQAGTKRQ
CYP3A4, sequence (P08684 whole entry): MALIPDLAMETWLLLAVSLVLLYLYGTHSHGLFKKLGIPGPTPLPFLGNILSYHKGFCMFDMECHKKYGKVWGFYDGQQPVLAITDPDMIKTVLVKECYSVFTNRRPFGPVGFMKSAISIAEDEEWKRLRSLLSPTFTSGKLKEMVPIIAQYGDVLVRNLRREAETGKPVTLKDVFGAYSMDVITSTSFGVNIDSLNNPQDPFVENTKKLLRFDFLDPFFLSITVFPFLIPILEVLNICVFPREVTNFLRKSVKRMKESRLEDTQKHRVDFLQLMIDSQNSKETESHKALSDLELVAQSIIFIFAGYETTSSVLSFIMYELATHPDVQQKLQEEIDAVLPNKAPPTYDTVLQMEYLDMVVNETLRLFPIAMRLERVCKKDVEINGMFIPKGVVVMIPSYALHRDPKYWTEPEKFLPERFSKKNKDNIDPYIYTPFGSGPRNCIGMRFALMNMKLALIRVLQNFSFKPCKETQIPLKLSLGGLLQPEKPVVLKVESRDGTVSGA

SMILES: COc1cc(C(=O)N[C@H](c2nc(C(=O)Nc3ccccc3C(=O)c3ccccc3)cs2)C(C)C)cc(OC)c1OC [Compound 1, (S)-N-(2-benzoylphenyl)-2-(2-methyl-1-(3,4,5-trimethoxybenzamido)propyl)thiazole-4-carboxamide]
- reversal of resistance to paclitaxel, doxorubicin and vincristine [1]: significant reversal of resistance
- tumor volume and tumor weight (tumor): reduced tumor volume and tumor weight
- IC50 (human P-gp [2]): 720 nM
- intracellular paclitaxel concentration [3]: increased intracellular paclitaxel concentration

- ATPase activity % Stimulation (human P-gp [4]): 15%
SMILES: COc1cc(C(=O)N[C@H](c2nc(C(=O)NC3CCNCC3)cs2)C(C)C)cc(OC)c1OC [Compound 42, (S)-2-(2-Methyl-1-(3,4,5-trimethoxybenzamido)propyl)-N-(piperidin-4-yl)thiazole-4-carboxamide]

- ATPase activity % Stimulation (human P-gp [4]): 21%
SMILES: COc1cc(C(=O)N[C@H](c2nc(C(=O)NCC3CCC(F)(F)CC3)cs2)C(C)C)cc(OC)c1OC [Compound 63, (S)-N-((4,4-Difluorocyclohexyl)methyl)-2-(2-methyl-1-(3,4,5-trimethoxybenzamido)propyl)thiazole-4-carboxamide]

- CYP3A4 Inhibition (%) (CYP3A4): did not inhibit
SMILES: COc1cc(C(=O)NC(Cc2ccccc2)c2nc(C(=O)NC3CCC(F)(F)CC3)cs2)cc(OC)c1OC (stereo not shown) [Compound 109, N-(4,4-Difluorocyclohexyl)-2-(2-phenyl-1-(3,4,5-trimethoxybenzamido)ethyl)thiazole-4-carboxamide]

- IC50 at 72 h (MDR reversal): 2050 ± 87 nM
SMILES: CC(=O)O[C@H]1C(=O)[C@@]2(C)[C@H]([C@H](OC(=O)c3ccccc3)[C@]3(O)C[C@H](OC(=O)[C@H](O)[C@@H](NC(=O)c4ccccc4)c4ccccc4)C(C)=C1C3(C)C)[C@]1(OC(C)=O)CO[C@@H]1C[C@@H]2O [Paclitaxel, paclitaxel]
- IC50 (HEK 293-pcDNA 3.1 cells): 71 ± 15 nM

SMILES: O[C@@H](COc1cccc2ncccc12)CN1CCN([C@@H]2c3ccccc3[C@@H]3[C@H](c4ccccc42)C3(F)F)CC1 [Zosuquidar, zosuquidar]
- cytotoxicity [5]: cytotoxic
